# Results from ChEMBL document CHEMBL1131863, “Synthesis and antibacterial activity of HMR 3647 a new ketolide highly potent against erythromycin-resistant and susceptible pathogens” (1999).
# Calls of active or inactive are those of the source. The calls are words filed in the database; no cut-off is given here.
# Assays:
# Streptococcus pneumoniae [1] = assay: The compound was tested in vitro for antibacterial activity against inducibly erythromycin resistant Streptococcus pneumoniae 030J5i.; format: functional
# Streptococcus pneumoniae [2] = assay: The compound was tested in vitro for antibacterial activity against constitutively erythromycin resistant Streptococcus pneumoniae 030PW23c.; format: functional
# Staphylococcus aureus [3] = assay: The compound was tested in vitro for antibacterial activity against constitutively erythromycin resistant Staphylococcus aureus 011CB20.; format: functional
# Staphylococcus aureus [4] = assay: The compound was tested in vitro for antibacterial activity against erythromycin susceptible Staphylococcus aureus 011UC4.; format: functional
# Streptococcus pyogenes [5] = assay: The compound was tested in vitro for antibacterial activity against erythromycin susceptible Streptococcus pyogenes 02A1UC1.; format: functional
# Escherichia coli [6] = assay: The compound was tested in vitro for antibacterial activity against Escherichia coli 250 UCS.; format: functional
# Haemophilus influenzae [7] = assay: The compound was tested in vitro for antibacterial activity against Haemophilus influenza 351HT3.; format: functional
# Staphylococcus aureus [8] = assay: The compound was tested in vitro for antibacterial activity against inducibly erythromycin resistant Staphylococcus aureus 011GO25i.; format: functional
# Streptococcus pneumoniae [9] = assay: The compound was tested in vitro for antibacterial activity against constitutively erythromycin resistant Streptococcus pneumoniae 030SJ1.; format: functional
# Streptococcus pneumoniae [10] = assay: The compound was tested in vitro for antibacterial activity against erythromycin susceptible Streptococcus pneumoniae 032UC1.; format: functional
# Streptococcus pneumoniae [11] = assay: The compound was tested in vitro for antibacterial activity against constitutively erythromycin resistant Streptococcus pneumoniae 030CR18c.; format: functional
# Haemophilus influenzae [12] = assay: (§1) The compound was tested in vivo for antibacterial activity against AmpR beta(+) Haemophilus influenza 351RD7 in mice after oral administration; format: functional
# Haemophilus influenzae [13] = assay: (§2) The compound was tested in vivo for antibacterial activity against Haemophilus influenza 351GR1 in mice after oral administration; format: functional
# Haemophilus influenzae [14] = assay: (§3) The compound was tested in vivo for antibacterial activity against AmpR beta(-) Haemophilus influenza 351TO19 in mice after oral administration; format: functional
# Mus musculus [15] = assay: The compound was tested in vivo for antibacterial activity against constitutively erythromycin resistant Streptococcus pneumoniae 030Cr29 in mice after oral administration; format: functional
# Mus musculus [16] = assay: The compound was tested in vivo for antibacterial activity against inducibly erythromycin resistant Staphylococcus aureus 011GO3 in mice after oral administration; format: functional
# Mus musculus [17] = assay: The compound was tested in vivo for antibacterial activity against erythromycin susceptible Staphylococcus aureus 011UC4 in mice after oral administration; format: functional
# Staphylococcus aureus [18] = assay: The compound was tested in vitro for antibacterial activity against inducibly erythromycin resistant Staphylococcus aureus 011GO25i; format: functional
# Escherichia coli [19] = assay: The compound was tested in vitro for antibacterial activity against Escherichia coli 250 UCS; format: functional
# Mus musculus [20] = assay: The compound was tested in vivo for antibacterial activity against erythromycin susceptible Streptococcus pneumoniae 032UC1 in mice after oral administration; format: functional
# Staphylococcus aureus [21] = assay: The compound was tested in vitro for antibacterial activity against erythromycin susceptible Staphylococcus aureus 011UC4; format: functional
# Streptococcus pneumoniae [22] = assay: The compound was tested in vitro for antibacterial activity against inducibly erythromycin resistant Streptococcus pneumoniae 030J5i; format: functional
# Mus musculus [23] = assay: The compound was tested in vivo for antibacterial activity against constitutively erythromycin resistant Streptococcus pneumoniae 030MV2 in mice after oral administration; format: functional
# Mus musculus [24] = assay: as §1; format: functional
# Mus musculus [25] = assay: The compound was tested in vivo for antibacterial activity against erythromycin susceptible Streptococcus pyogenes 02A1UC1 in mice after oral administration; format: functional
# Mus musculus [26] = assay: as §2; format: functional
# Streptococcus pneumoniae [27] = assay: The compound was tested in vitro for antibacterial activity against constitutively erythromycin resistant Streptococcus pneumoniae 030PW23c; format: functional
# Haemophilus influenzae [28] = assay: The compound was tested in vitro for antibacterial activity against Haemophilus influenza 351HT3; format: functional
# Mus musculus [29] = assay: The compound was tested in vivo for antibacterial activity against inducibly erythromycin resistant Streptococcus pneumoniae 030RO1 in mice after oral administration; format: functional
# Staphylococcus aureus [30] = assay: The compound was tested in vitro for antibacterial activity against constitutively erythromycin resistant Staphylococcus aureus 011CB20; format: functional
# Streptococcus pneumoniae [31] = assay: The compound was tested in vitro for antibacterial activity against constitutively erythromycin resistant Streptococcus pneumoniae 030SJ1; format: functional
# Streptococcus pyogenes [32] = assay: The compound was tested in vitro for antibacterial activity against erythromycin susceptible Streptococcus pyogenes 02A1UC1; format: functional
# Mus musculus [33] = assay: The compound was tested in vivo for antibacterial activity against constitutively erythromycin resistant Streptococcus pneumoniae 030SJ1 in mice after oral administration; format: functional
# Streptococcus pneumoniae [34] = assay: The compound was tested in vitro for antibacterial activity against constitutively erythromycin resistant Streptococcus pneumoniae 030CR18c; format: functional
# Streptococcus pneumoniae [35] = assay: The compound was tested in vitro for antibacterial activity against erythromycin susceptible Streptococcus pneumoniae 032UC1; format: functional
# Mus musculus [36] = assay: as §3; format: functional
# Haemophilus influenzae [37] = assay: The compound was tested in vitro for antibacterial activity against 47 strains of Haemophilus influenza AmpS; Value is 1.2/5; format: functional, organism-based
# Streptococcus sp. = assay: The compound was tested in vitro for antibacterial activity against 31 strains of erythromycin resistant Streptococci; Value is 1.2/40; format: functional, organism-based
# Streptococcus pneumoniae [38] = assay: The compound was tested in vitro for antibacterial activity against 32 strains of inducibly erythromycin resistant Streptococcus pneumoniae Value is 40/40; format: functional, organism-based
# Staphylococcus sp. = assay: The compound was tested in vitro for antibacterial activity against 66 strains of inducibly erythromycin resistant Staphylococci; Value is 40/40; format: functional, organism-based
# Streptococcus pneumoniae [39] = assay: The compound was tested in vitro for antibacterial activity against 40 strains of constitutively erythromycin resistant Streptococcus pneumoniae Value is 40/40; format: functional, organism-based
# Haemophilus influenzae [40] = assay: The compound was tested in vitro for antibacterial activity against 39 strains of Haemophilus influenza AmpR; Value is 2.5/10; format: functional, organism-based
# Streptococcus pneumoniae [41] = assay: The compound was tested in vitro for antibacterial activity against 53 strains of Streptococcus pneumoniae PenR Value is 0.3/40; format: functional, organism-based
# Mus musculus [42] = assay: The compound was tested in vivo for antibacterial activity against constitutively erythromycin resistant Streptococcus pneumoniae 030SJ6 in mice after oral administration; format: functional
SMILES,MIC (Streptococcus pneumoniae [1]),MIC (Streptococcus pneumoniae [2]),MIC (Staphylococcus aureus [3]),MIC (Staphylococcus aureus [4]),MIC (Streptococcus pyogenes [5]),MIC (Escherichia coli [6]),MIC (Haemophilus influenzae [7]),MIC (Staphylococcus aureus [8]),MIC (Streptococcus pneumoniae [9]),MIC (Streptococcus pneumoniae [10]),ED50 (Mus musculus [15]),ED50 (Mus musculus [17]),ED50 (Mus musculus [20]),ED50 (Mus musculus [23]),ED50 (Mus musculus [24]),ED50 (Mus musculus [25]),ED50 (Mus musculus [26]),ED50 (Mus musculus [29]),ED50 (Mus musculus [33]),ED50 (Mus musculus [36]),further results
CC[C@H]1OC(=O)[C@H](C)C(=O)[C@H](C)[C@@H](O[C@@H]2O[C@H](C)C[C@H](N(C)C)[C@H]2O)[C@](C)(OC)C[C@@H](C)C(=O)[C@H](C)[C@H]2N(CCCCn3cnc(-c4ccccc4)c3)C(=O)O[C@]12C,2.5 µg/mL,20 µg/mL,40 µg/mL,0.08 µg/mL,0.02 µg/mL,40 µg/mL,2.5 µg/mL,0.3 µg/mL,2.5 µg/mL,0.02 µg/mL,,,,,,,,,,,MIC (Streptococcus pneumoniae [11]): 1.2 µg/mL
CC1(C)S[C@@H]2[C@H](NC(=O)[C@H](N)c3ccccc3)C(=O)N2[C@H]1C(=O)O [AMPICILLIN],,,,,,,,,,,,,,,,,,,,,ED50 (Haemophilus influenzae [12]): > 600 mg/kg; ED50 (Haemophilus influenzae [13]): 5.5 mg/kg; ED50 (Haemophilus influenzae [14]): 39 mg/kg
CC[C@H]1OC(=O)[C@H](C)[C@@H](O[C@H]2C[C@@](C)(OC)[C@@H](O)[C@H](C)O2)[C@H](C)[C@@H](O[C@@H]2O[C@H](C)C[C@H](N(C)C)[C@H]2O)[C@](C)(O)C[C@@H](C)CN(C)[C@H](C)[C@@H](O)[C@]1(C)O [AZITHROMYCIN],,,,,,,,,,,> 50 mg/kg,30 mg/kg,6 mg/kg,> 50 mg/kg,94 mg/kg,16 mg/kg,56 mg/kg,> 50 mg/kg,> 50 mg/kg,145 mg/kg,ED50 (Mus musculus [16]): > 100 mg/kg; MIC (Staphylococcus aureus [18]): 40 µg/mL; MIC (Escherichia coli [19]): 20 µg/mL; MIC (Staphylococcus aureus [21]): 0.3 µg/mL; MIC (Streptococcus pneumoniae [22]): 40 µg/mL; MIC (Streptococcus pneumoniae [27]): 40 µg/mL; MIC (Haemophilus influenzae [28]): 1.2 µg/mL; MIC (Staphylococcus aureus [30]): 40 µg/mL; MIC (Streptococcus pneumoniae [31]): 40 µg/mL; MIC (Streptococcus pyogenes [32]): 0.6 µg/mL; MIC (Streptococcus pneumoniae [34]): 40 µg/mL; MIC (Streptococcus pneumoniae [35]): 0.15 µg/mL
CC[C@H]1OC(=O)[C@H](C)[C@@H](O[C@H]2C[C@@](C)(OC)[C@@H](O)[C@H](C)O2)[C@H](C)[C@@H](O[C@@H]2O[C@H](C)C[C@H](N(C)C)[C@H]2O)[C@](C)(OC)C[C@@H](C)C(=O)[C@H](C)[C@@H](O)[C@]1(C)O [CLARITHROMYCIN],,,,,,,,,,,> 50 mg/kg,6 mg/kg,7.5 mg/kg,> 50 mg/kg,120 mg/kg,16 mg/kg,71 mg/kg,> 50 mg/kg,> 50 mg/kg,> 300 mg/kg,ED50 (Mus musculus [16]): 55 mg/kg; MIC (Staphylococcus aureus [18]): 40 µg/mL; MIC (Escherichia coli [19]): 40 µg/mL; MIC50/MIC90 (Haemophilus influenzae [37]): Active; MIC (Staphylococcus aureus [21]): 0.3 µg/mL; MIC50/MIC90 (Streptococcus sp.): Active; MIC (Streptococcus pneumoniae [22]): 40 µg/mL; MIC (Streptococcus pneumoniae [27]): 40 µg/mL; MIC50/MIC90 (Streptococcus pneumoniae [38]): Active; MIC (Haemophilus influenzae [28]): 5 µg/mL; MIC50/MIC90 (Staphylococcus sp.): Active; MIC (Staphylococcus aureus [30]): 40 µg/mL; MIC50/MIC90 (Streptococcus pneumoniae [39]): Active; MIC (Streptococcus pneumoniae [31]): 40 µg/mL; MIC50/MIC90 (Haemophilus influenzae [40]): Active; MIC (Streptococcus pyogenes [32]): 0.08 µg/mL; MIC (Streptococcus pneumoniae [34]): 40 µg/mL; MIC50/MIC90 (Streptococcus pneumoniae [41]): Active; ED50 (Mus musculus [42]): > 50 mg/kg; MIC (Streptococcus pneumoniae [35]): 0.04 µg/mL
CC[C@H]1OC(=O)[C@H](C)C(=O)[C@H](C)[C@@H](O[C@@H]2O[C@H](C)C[C@H](N(C)C)[C@H]2O)[C@](C)(OC)C[C@@H](C)C(=O)[C@H](C)[C@H]2N(CCCCn3cnc(-c4cccnc4)c3)C(=O)O[C@]12C [TELITHROMYCIN],0.02 µg/mL,0.08 µg/mL,40 µg/mL,0.04 µg/mL,0.02 µg/mL,10 µg/mL,1.2 µg/mL,0.08 µg/mL,0.08 µg/mL,0.02 µg/mL,4.5 mg/kg,10 mg/kg,1 mg/kg,4 mg/kg,57 mg/kg,16 mg/kg,68 mg/kg,4 mg/kg,15 mg/kg,40 mg/kg,ED50 (Mus musculus [42]): 6.5 mg/kg; MIC (Streptococcus pneumoniae [11]): 0.15 µg/mL
